Data set [1] addresses T1, Epidermal growth factor receptor (Homo sapiens, UniProt P00533). The data set can be described thus: Inhibition of wild-type EGFR (unknown origin) using Poly(Glu,Tyr) 4:1 as substrate after 60 mins by ELISA.
Data set [2] concerns the target Epidermal growth factor receptor (Homo sapiens, UniProt P00533, C797S/L858R/T790M). The data set can be described thus: (§1) Inhibition of human C-terminal His-tagged and N-terminal GST-tagged EGFR L858R/T790M/C797S triple mutant ( 668 to 1210 amino acids) expressed in baculovirus infected Sf9 insect cells using Poly(Glu,Tyr) 4:1 as substrate after 60 mins by ELISA. For orientation: ELISA stands for enzyme-linked immunosorbent assay.

The target of data set [3] is Epidermal growth factor receptor (Homo sapiens, UniProt P00533, T790M/C797S/L858R). The data set is described as §1. The conditions noted are these: sf9.
Data set [4] in a line: Metabolic stability in rat liver microsomes preincubated for 5 mins followed by NADPH addition and measured after 5 to 45 mins by LC/MS analysis. It counts as ADME, Microsome. A general note: Liver microsomes are vesicles of endoplasmic reticulum, rich in cytochrome P450 enzymes.
Data set [5] deals with Epidermal growth factor receptor (Homo sapiens), P00533 [L858R,T790M,C797S]. Nature of the data set: Inhibition of EGFR L858R/T790M/C797S triple mutant (unknown origin) transfected in mouse BAF3 cells assessed as reduction in EGF-induced EGFR phosphorylation at 0.1 to 3 uM by Western blot analysis. It counts as cell-based. (In western blotting, separated proteins are transferred to a membrane and probed.)

The target in data set [6] is T1, Epidermal growth factor receptor. Nature of the data set: Inhibition of wild-type EGFR (unknown origin) transfected in human A431 cells assessed as reduction in EGF-induced EGFR phosphorylation at 0.1 to 3 uM by Western blot analysis. It counts as cell-based.
Data set [7] relates to BaF3. The data set can be described thus: Antiproliferative activity against mouse BAF3 cells harboring EGFR L858R/T790M/C797S triple mutant after 72 hrs by resazurin dye-based fluorescence assay. The conditions noted are these: BaF3, 72 h. Type of data set: functional, cell-based.
The nature of data set [8]: Aqueous solubility of the compound at 2 mg at pH 7.4 after 24 hrs by LC-MS/MS analysis. It counts as physicochemical. The conditions noted are these: pH 7.4, 24 h.
A short description of data set [9]: Permeability of the compound in human Caco2 cells at 10 uM after 120 mins by LC-MS/MS analysis. It counts as ADME, cell-based. The conditions noted are these: caco-2, 2 h.

This note sets out measurements from ChEMBL document CHEMBL4373695, “Structure-Based Design of 5-Methylpyrimidopyridone Derivatives as New Wild-Type Sparing Inhibitors of the Epidermal Growth Factor Receptor Triple Mutant (EGFRL858R/T790M/C797S)” (J Med Chem, 2019).

Calls of active or inactive are those of the source. The rule behind the calls is not given here. Where only a bound is given, the exact number is not on record here.

Epidermal growth factor receptor (Homo sapiens, UniProt P00533, C797S/L858R/T790M), sequence (P00533 25-1210 T790M/C797S/L858R limits assumed): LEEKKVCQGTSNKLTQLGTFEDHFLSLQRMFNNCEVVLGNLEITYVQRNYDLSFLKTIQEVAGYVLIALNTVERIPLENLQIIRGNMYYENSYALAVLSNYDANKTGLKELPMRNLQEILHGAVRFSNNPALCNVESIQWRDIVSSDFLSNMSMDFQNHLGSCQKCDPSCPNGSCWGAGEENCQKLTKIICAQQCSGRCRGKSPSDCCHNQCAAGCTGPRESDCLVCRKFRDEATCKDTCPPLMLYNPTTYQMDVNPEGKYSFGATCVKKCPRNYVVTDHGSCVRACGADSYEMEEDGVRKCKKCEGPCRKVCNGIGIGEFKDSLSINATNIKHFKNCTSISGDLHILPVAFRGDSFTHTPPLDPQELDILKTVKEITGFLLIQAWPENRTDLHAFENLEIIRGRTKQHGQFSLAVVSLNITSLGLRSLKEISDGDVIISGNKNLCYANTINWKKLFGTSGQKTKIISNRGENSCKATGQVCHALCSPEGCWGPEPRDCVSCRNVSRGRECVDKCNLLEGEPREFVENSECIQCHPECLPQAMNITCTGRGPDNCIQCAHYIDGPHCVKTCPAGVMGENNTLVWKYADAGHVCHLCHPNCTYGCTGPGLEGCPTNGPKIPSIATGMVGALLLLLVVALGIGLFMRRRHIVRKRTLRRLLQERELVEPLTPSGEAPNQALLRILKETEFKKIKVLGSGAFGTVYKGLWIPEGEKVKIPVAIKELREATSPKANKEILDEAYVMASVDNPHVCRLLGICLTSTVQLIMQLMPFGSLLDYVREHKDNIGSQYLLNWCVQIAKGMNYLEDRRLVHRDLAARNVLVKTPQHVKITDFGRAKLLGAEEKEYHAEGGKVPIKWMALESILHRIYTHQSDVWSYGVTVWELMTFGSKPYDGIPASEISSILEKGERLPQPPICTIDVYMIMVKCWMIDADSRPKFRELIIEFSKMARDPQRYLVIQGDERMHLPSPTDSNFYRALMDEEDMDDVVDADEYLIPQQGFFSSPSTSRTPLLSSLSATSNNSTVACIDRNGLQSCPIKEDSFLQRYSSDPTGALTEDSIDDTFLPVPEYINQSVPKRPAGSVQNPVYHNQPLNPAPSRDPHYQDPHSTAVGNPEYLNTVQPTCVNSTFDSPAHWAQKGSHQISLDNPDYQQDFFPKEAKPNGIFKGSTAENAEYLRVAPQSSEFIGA
T1 sequence (P00533 whole entry, the tested form may be a part): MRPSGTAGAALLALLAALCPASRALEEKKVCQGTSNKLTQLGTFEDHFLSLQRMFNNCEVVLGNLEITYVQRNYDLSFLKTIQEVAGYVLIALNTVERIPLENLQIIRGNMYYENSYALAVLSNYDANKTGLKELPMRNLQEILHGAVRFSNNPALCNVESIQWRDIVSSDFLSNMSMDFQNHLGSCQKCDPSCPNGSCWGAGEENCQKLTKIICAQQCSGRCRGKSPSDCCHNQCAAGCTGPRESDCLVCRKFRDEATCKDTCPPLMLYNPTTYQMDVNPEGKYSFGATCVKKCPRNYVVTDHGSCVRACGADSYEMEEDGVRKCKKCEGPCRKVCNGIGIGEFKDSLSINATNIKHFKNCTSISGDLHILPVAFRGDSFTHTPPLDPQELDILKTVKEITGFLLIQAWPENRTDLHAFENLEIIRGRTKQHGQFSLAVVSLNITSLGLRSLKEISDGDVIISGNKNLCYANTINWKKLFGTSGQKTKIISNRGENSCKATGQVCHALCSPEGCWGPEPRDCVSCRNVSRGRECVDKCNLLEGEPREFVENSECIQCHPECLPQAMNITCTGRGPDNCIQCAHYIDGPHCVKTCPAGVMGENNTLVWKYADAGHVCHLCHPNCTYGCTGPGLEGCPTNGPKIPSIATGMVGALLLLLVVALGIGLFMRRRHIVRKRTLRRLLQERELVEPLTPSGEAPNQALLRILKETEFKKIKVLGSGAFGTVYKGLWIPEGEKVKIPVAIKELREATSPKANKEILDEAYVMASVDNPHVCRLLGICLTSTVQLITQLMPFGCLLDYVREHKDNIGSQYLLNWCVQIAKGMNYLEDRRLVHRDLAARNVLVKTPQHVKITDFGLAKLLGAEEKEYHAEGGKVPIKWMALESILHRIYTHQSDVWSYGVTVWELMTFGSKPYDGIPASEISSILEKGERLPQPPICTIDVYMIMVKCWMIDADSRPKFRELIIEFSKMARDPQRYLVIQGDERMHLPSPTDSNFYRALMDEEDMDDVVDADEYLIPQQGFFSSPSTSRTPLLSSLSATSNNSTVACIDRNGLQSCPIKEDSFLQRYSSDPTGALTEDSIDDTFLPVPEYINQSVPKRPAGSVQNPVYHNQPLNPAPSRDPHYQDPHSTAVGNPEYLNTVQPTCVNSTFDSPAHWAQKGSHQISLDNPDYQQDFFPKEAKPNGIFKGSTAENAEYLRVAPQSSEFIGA
Epidermal growth factor receptor (Homo sapiens), P00533 [L858R,T790M,C797S], sequence (P00533 whole entry T790M/C797S/L858R): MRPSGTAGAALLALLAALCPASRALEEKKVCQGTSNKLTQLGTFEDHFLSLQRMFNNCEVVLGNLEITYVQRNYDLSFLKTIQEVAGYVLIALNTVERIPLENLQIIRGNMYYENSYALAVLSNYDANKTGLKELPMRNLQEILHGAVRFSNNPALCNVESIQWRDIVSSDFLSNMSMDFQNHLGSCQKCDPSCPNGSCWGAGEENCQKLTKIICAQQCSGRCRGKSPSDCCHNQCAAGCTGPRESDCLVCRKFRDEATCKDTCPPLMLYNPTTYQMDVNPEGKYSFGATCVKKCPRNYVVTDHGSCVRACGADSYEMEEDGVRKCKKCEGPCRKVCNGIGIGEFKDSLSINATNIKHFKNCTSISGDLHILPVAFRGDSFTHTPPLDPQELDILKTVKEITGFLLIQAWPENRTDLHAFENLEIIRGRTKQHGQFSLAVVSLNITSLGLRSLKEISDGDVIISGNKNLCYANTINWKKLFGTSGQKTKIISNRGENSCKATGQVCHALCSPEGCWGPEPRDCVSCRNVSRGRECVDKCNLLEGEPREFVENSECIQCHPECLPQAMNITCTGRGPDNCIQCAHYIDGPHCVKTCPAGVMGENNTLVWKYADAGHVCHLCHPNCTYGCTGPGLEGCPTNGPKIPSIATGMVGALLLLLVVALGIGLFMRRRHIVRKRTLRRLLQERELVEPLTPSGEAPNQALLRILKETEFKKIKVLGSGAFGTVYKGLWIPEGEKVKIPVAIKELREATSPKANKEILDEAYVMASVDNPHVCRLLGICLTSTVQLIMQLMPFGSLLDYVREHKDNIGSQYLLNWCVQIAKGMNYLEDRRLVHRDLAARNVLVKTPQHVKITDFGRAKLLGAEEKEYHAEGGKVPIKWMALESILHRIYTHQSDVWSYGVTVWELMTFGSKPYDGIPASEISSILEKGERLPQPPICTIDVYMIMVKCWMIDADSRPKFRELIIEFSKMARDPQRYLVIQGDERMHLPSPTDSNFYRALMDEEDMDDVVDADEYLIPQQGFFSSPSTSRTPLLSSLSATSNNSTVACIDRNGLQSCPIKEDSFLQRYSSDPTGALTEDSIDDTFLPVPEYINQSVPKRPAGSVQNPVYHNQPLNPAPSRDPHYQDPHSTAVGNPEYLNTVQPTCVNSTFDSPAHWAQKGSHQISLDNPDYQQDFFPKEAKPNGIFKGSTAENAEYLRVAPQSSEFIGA
Epidermal growth factor receptor (Homo sapiens, UniProt P00533, T790M/C797S/L858R), sequence (P00533 25-1210 T790M/C797S/L858R limits assumed): as the sequence (P00533 25-1210 T790M/C797S/L858R limits assumed) above

The IC50 is the midpoint of a concentration-inhibition curve. Turning to `N#Cc1ccc(O)c(-c2nc(NCc3cnccn3)c3ccccc3n2)c1`, the IC50 was more than 1000 nM in data set [1] and 38.7 nM in [2].

In the case of `CCC(=O)N1CCC[C@@H](n2c(=O)c(-c3ccccc3)c(C)c3cnc(Nc4ccc(N5CCN(C)CC5)c(C)c4)nc32)C1`, the IC50 in [1] and in data set [2] was more than 1000 nM each time.

In the case of `CCC(=O)N1CCC[C@@H](n2c(=O)c(-c3ccc(Cl)cc3)c(C)c3cnc(Nc4ccc(N5CCN(C)CC5)c(C)c4)nc32)C1`, the IC50 in [1] and in [2] was more than 1000 nM each time.

As to `CCC(=O)N1CCC[C@@H](n2c(=O)c(-c3cccc(Cl)c3)c(C)c3cnc(Nc4ccc(N5CCN(C)CC5)c(C)c4)nc32)C1`, the IC50 in [1] and in data set [2] was more than 1000 nM each time.

Consider `CCC(=O)N[C@H]1CC[C@@H](n2c(=O)c(-c3ccccc3Cl)c(C)c3cnc(Nc4ccc(N5CCN(C)CC5)c(C)c4)nc32)CC1` (stereo in doubt; 8c-A), for which the figures for the half-maximal inhibitory concentration (IC50) in data set [1] and in data set [2] were more than 1000 nM and 519 nM, respectively.

As to `CCC(=O)N[C@H]1CC[C@@H](n2c(=O)c(-c3ccccc3Cl)c(C)c3cnc(Nc4ccc(N5CCN(C)CC5)c(C)c4)nc32)CC1` (stereo in doubt; 8c-B), the half-inhibitory concentration (IC50) came to 169 nM in [1] and 27.7 nM in data set [2].

With `CCC(=O)N1CCC[C@H](n2c(=O)c(-c3ccccc3Cl)c(C)c3cnc(Nc4ccc(N5CCN(C)CC5)c(C)c4)nc32)C1` (stereo in doubt; 8e-A), the half-inhibitory concentration (IC50) in data set [1] and in data set [2] was more than 1000 nM in each case.

Consider `CCC(=O)N1CCC[C@H](n2c(=O)c(-c3ccccc3Cl)c(C)c3cnc(Nc4ccc(N5CCN(C)CC5)c(C)c4)nc32)C1` (stereo in doubt; 8e-B), for which the IC50 in data set [1] and in data set [3] was more than 1000 nM in each case.

Take `CCC(=O)N1CCC[C@@H](n2c(=O)c(-c3ccccc3Cl)c(C)c3cnc(Nc4ccc(N5CCN(C)CC5)c(C)c4)nc32)C1` (stereo in doubt; 8f-A): the IC50 in [1] and in data set [2] was more than 1000 nM in each case.

As to `CCC(=O)N1CCC[C@@H](n2c(=O)c(-c3ccccc3Cl)c(C)c3cnc(Nc4ccc(N5CCN(C)CC5)c(C)c4)nc32)C1` (stereo in doubt; 8f-B), the results for the IC50 in [1] and in data set [2] were more than 1000 nM and 65.1 nM, respectively.

For `CCC(=O)N1CC[C@@H](n2c(=O)c(-c3ccccc3Cl)c(C)c3cnc(Nc4ccc(N5CCN(C)CC5)c(C)c4)nc32)C1` (stereo in doubt; 8g-A), the IC50 in [1] and in data set [2] was more than 1000 nM throughout.

With `CCC(=O)N1CC[C@@H](n2c(=O)c(-c3ccccc3Cl)c(C)c3cnc(Nc4ccc(N5CCN(C)CC5)c(C)c4)nc32)C1` (stereo in doubt; 8g-B), the values for the IC50 in [1] and in data set [2] were more than 1000 nM and 81.7 nM, respectively.

As for `CCC(=O)N1CCC[C@@H](n2c(=O)c(-c3ccccc3Br)c(C)c3cnc(Nc4ccc(N5CCN(C)CC5)c(C)c4)nc32)C1` (stereo in doubt; 8l-A), the values for the IC50 in data set [1] and in data set [2] were more than 1000 nM and 498 nM, respectively.

Consider `CCC(=O)N1CCC[C@@H](n2c(=O)c(-c3ccccc3Br)c(C)c3cnc(Nc4ccc(N5CCN(C)CC5)c(C)c4)nc32)C1` (stereo in doubt; 8l-B), for which the results for the 50% inhibitory concentration (IC50) in [1] and in data set [2] were more than 1000 nM and 56.1 nM, respectively.

Turning to `CCC(=O)N1CCC[C@@H](n2c(=O)c(-c3ccccc3C)c(C)c3cnc(Nc4ccc(N5CCN(C)CC5)c(C)c4)nc32)C1` (stereo in doubt; 8m-A), the figures for the IC50 in data set [1] and in data set [2] were more than 1000 nM and 588 nM, respectively.

Turning to `CCC(=O)N1CCC[C@@H](n2c(=O)c(-c3ccccc3C)c(C)c3cnc(Nc4ccc(N5CCN(C)CC5)c(C)c4)nc32)C1` (stereo in doubt; 8m-B), the IC50 in data set [1] was more than 1000 nM; in [2] it was 228 nM.

For the compound `CCC(=O)N1CCC[C@@H](n2c(=O)c(-c3cc(F)ccc3Cl)c(C)c3cnc(Nc4ccc(N5CCN(C)CC5)c(C)c4)nc32)C1` (stereo in doubt; 8p-A), the values for the IC50 in data set [1] and in [2] were more than 1000 nM and 207 nM, respectively.

With `CCC(=O)N1CCC[C@@H](n2c(=O)c(-c3cc(F)ccc3Cl)c(C)c3cnc(Nc4ccc(N5CCN(C)CC5)c(C)c4)nc32)C1` (stereo in doubt; 8p-B), the half-inhibitory concentration (IC50) in data set [1] was more than 1000 nM; in [2] it was 37.1 nM.

Regarding `CCC(=O)N1CCC[C@@H](n2c(=O)c(-c3ccc(F)cc3Cl)c(C)c3cnc(Nc4ccc(N5CCN(C)CC5)c(C)c4)nc32)C1` (stereo in doubt; 8q-A), the 50% inhibitory concentration (IC50) was more than 1000 nM in data set [1] and 224 nM in [2].

On to `CCC(=O)N1CCC[C@@H](n2c(=O)c(-c3ccc(F)cc3Cl)c(C)c3cnc(Nc4ccc(N5CCN(C)CC5)c(C)c4)nc32)C1` (stereo in doubt; 8q-B), for which the IC50 in [1] is more than 1000 nM; in data set [2], 88.6 nM.

Regarding `CCC(=O)N1CCC[C@@H](n2c(=O)c(-c3cccc(F)c3Cl)c(C)c3cnc(Nc4ccc(N5CCN(C)CC5)c(C)c4)nc32)C1` (stereo in doubt; 8r-B), the Stability entry in [4] is “Unstable”. For the same compound, the inhibition result in data set [5] is “Active”. Further, the “inhibition (INH)” value in data set [6] was “Not Active”. The compound also registered an IC50 in [7] of 662 nM. Further, in [8], the solubility result is listed as “Soluble”. The permeability result in [9] was “Permeable”.
